“Also recorded” adds a separate entry of the source. Structures can show the parent of a compound that is named as a salt. Where two headings read alike, the source gives them in different places.
Columns and labels:
Taq DNA polymerase = Taq DNA polymerase (Thermus aquaticus, UniProt P19821); format: biochemical
Text: A forward primer (SEQ ID No: 1) and a reverse primer (SEQ ID No: 2) were used with the PCR program described in Table 3. PCR products were detected by agarose gel electrophoresis followed by ethidium bromide staining

[1] = test system: Platinum SuperFi DNA polymerase
Method: Yield and tolerance for urea in PCR master mix with different amines compared to the control master mix (with KCl) was evaluated by amplification of a 1 kb fragment from 42 ng of human genomic DNA template in 50 μl PCR reactions.
PCR master mix (1×) composition was 0.16 u/μL Platinum SuperFi DNA polymerase in 1× SuperFi buffer. In some experiments, 110 mM of KCl was substituted for solution comprising amines. […]
The PCR program used for the experiment is described in Table 4.
(§1) Products were detected by electrophoresis in a 1% TAE gels followed by staining with ethidium bromide.

[2] = test system: Platinum SuperFi DNA polymerase; format: biochemical; conditions: for yield of PCR product: up to 20 μl of Agencourt XP magnetic beads in 50 μl PCR reaction, amine instead of 110 mM KCl
Method: PCR yield and tolerance for magnetic beads in PCR master mix with different amines compared to the control master mix (with KCl) was evaluated by amplification of a 1 kb fragment from 42 ng of human genomic DNA template. PCR was performed in 50 μl PCR reactions in the presence of increasing amounts of magnetic beads.
The PCR master mix (1×) concentration of KCl (110 mM) was substituted for solution comprising an amine.
Agencourt XP magnetic beads were used in the experiment. From 5 to 35 μl of magnetic beads were washed 2 times with 80% EtOH and dried (an imitation of a protocol for purifying nucleic acids). Dried magnetic beads were resuspended in 50 μl of PCR reaction (complete with PCR master mix, DNA matrix, and primers). The forward primer was SEQ ID No: 3, and the reverse primer was SEQ ID No: 4.
as §1

[3] = test system: mutant Taq DNA polymerase
[4] = PCR buffers containing amine, PCR buffer 1: 0.04%
[5] = sodium citrate 0-0.08%, PCR buffers with 10, 40 or 50 mM amine
[6] = urea 0-230 mM, PCR buffers with 10, 40 or 50 mM amine

Sequence of Taq DNA polymerase (P19821 whole entry): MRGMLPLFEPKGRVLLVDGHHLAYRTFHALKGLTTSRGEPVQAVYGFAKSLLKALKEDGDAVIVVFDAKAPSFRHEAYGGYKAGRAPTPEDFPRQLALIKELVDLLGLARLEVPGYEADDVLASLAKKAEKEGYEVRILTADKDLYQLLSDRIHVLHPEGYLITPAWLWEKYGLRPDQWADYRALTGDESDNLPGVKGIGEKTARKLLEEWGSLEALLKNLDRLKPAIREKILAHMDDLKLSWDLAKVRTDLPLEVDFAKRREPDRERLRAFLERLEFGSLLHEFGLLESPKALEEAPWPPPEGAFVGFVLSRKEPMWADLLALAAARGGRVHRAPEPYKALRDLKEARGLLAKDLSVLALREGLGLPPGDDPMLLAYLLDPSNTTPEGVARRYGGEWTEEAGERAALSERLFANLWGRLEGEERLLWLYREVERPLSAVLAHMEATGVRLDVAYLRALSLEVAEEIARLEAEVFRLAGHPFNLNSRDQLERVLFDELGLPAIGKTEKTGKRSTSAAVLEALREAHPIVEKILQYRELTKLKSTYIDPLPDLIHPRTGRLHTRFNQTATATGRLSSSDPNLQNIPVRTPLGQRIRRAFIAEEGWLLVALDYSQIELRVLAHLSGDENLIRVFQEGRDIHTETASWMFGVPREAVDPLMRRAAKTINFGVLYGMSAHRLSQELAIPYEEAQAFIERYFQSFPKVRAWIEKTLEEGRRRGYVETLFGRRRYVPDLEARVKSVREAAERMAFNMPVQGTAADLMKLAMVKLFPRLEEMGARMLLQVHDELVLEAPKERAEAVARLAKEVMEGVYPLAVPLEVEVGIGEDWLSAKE

Row | SMILES | PCR product yield compared to PCR buffer 1 without amines (Taq DNA polymerase) | sodium citrate concentration tolerated (Taq DNA polymerase; [4]) [%] | PCR product yield compared with PCR buffer 1 (Taq DNA polymerase; [5]) | greater tolerance to sodium citrate compared to PCR buffer 1 (Taq DNA polymerase; sodium citrate, PCR buffer 1: 0.04%) [times] | PCR product yield compared with PCR buffer 1 (Taq DNA polymerase; [6]) | greater tolerance to urea compared with PCR buffer 1 (Taq DNA polymerase; urea, PCR buffer 1: 37 mM) [times] | greater tolerance to sodium citrate compared to PCR buffer 1 (Taq DNA polymerase) [times] | greater tolerance to urea compared with PCR buffer 1 (Taq DNA polymerase) [times] | sodium citrate concentration tolerated (Taq DNA polymerase) [%] | PCR product yield compared with PCR buffer 1 (Taq DNA polymerase; hydrochloride) | PCR yield [1] | tolerance to urea compared to PCR buffer with KCl [1] | yield of PCR product [2] | tolerance to sodium citrate compared with PCR buffer 1 (Taq DNA polymerase; sodium citrate 0-0.08%, PCR buffers containing amine) | resistance to urea compared with PCR buffer 1 (Taq DNA polymerase; urea 0-230 mM, PCR buffers containing amine) | PCR product yield [3] | PCR product yield (SuperFi DNA polymerase) | tolerated amount of magnetic beads in the PCR reaction [2] | PCR product yield in the presence of magnetic beads ([2]; reaction buffer with 70, 80 or 90 mM KCl, part or all of the potassium salt replaced with amine, data not shown)
1 | CC(C)NC(C)C.Cl [diisopropylamine hydrochloride] | higher | 0.05 | Higher | 1.25 | increased | 2.5 | – | – | – | – | – | – | – | – | – | – | – | – | –
2 | CCNCC.Cl [diethylamine hydrochloride] | higher | – | – | – | – | – | 1.25 | 2.5 | 0.05 | increased; also recorded: Higher | much higher | Increased tolerance | Increased yield | – | – | – | – | – | –
3 | CN(C)C [trimethylamine hydrochloride] | higher | 0.04 | Higher | – | increased | – | – | – | – | – | – | – | Increased yield | same tolerance | same resistance | – | – | – | –
4 | CNC [dimethylamine hydrochloride] | – | – | – | – | – | – | – | – | – | – | much higher | – | Increased yield | – | – | increased | increased | increased the tolerated amount | increased

Source: patent US20200392562A1, “[…] REACTION C[…]” (priority 2017, published 2020)
